From PubChem BioAssay AID216 (DTP/NCI, 2004) come the findings set out here.

The experiment concerns BDF1 mice, P288 leukemia ip, survival T/C. Briefly: NCI In Vivo Anticancer Drug Screen. Data for tumor model P288 Lymphocytic Leukemia (intraperitoneal) in B6D2F1 (BDF1) mice. Conditions: endpoint: survival time, mean or median, higher = longer survival. The procedure:
The antitumor activity of compounds was measured in mice bearing transplantable tumors. Survival or tumor size were measured and the results are expressed as the measurement made in the treated group (T) divided by the measurement made in the vehicle treated control group (C). The tumor model used in this assay is P288 Lymphocytic Leukemia (intraperitoneal) in B6D2F1 (BDF1) mice

Setting [1] is: dose: 6.25 mg/kg/injection, schedule: Q01DX Z (ip), vehicle: carboxymethylcellulose (CMC).
Where [2] appears, read: dose: 12.5 mg/kg/injection, schedule: Q01DX Z (ip), vehicle: carboxymethylcellulose (CMC).
Setting [3] is: dose: 25.0 mg/kg/injection, schedule: Q01DX Z (ip), vehicle: carboxymethylcellulose (CMC).
Where [4] appears, read: dose: 50.0 mg/kg/injection, schedule: Q01DX Z (ip), vehicle: carboxymethylcellulose (CMC).
[5] abbreviates: dose: 100.0 mg/kg/injection, schedule: Q01DX Z (ip), vehicle: carboxymethylcellulose (CMC).
Where [6] appears, read: dose: 200.0 mg/kg/injection, schedule: Q01DX Z (ip), vehicle: carboxymethylcellulose (CMC).

“And” between values parts separate entries of the source, which are not always exact repeats. Identical values can stand only once. Inconclusive results and toxic doses are left out.

Regarding `O=C(Nc1ccc(C2=NCCN2)cc1)c1ccc(C(=O)Nc2ccc(C3=NCCN3)cc2)cc1`, the T/C is 107 % of control (dose: 3.12 mg/kg/injection, schedule: Q01DX Z (ip), vehicle: carboxymethylcellulose (CMC)); 94 % of control under setting [1]; 158 % of control and 188 % of control (dose: 8.0 mg/kg/injection, schedule: Q01DX010 (ip), vehicle: other); 102 % of control under setting [2]; 195 % of control (dose: 16.0 mg/kg/injection, schedule: Q01DX010 (ip), vehicle: other); 102 % of control under setting [3]. For the same molecule, the T/C runs as follows: (dose: 32.0 mg/kg/injection, schedule: Q01DX010 (ip), vehicle: other) 154 % of control; under setting [4], 102 % of control; under setting [5], 204 % of control; under setting [6], 186 % of control.

Consider `COC12C(COC(N)=O)C3=C(C(=O)C(C)=C(N)C3=O)N1CC1C2N1C` (stereo not drawn), for which the T/C is, setting by setting: (dose: 0.31 mg/kg/injection, schedule: Q01DX Z (ip), vehicle: carboxymethylcellulose (CMC)) 110 % of control; (dose: 0.63 mg/kg/injection, schedule: Q01DX Z (ip), vehicle: carboxymethylcellulose (CMC)) 120 % of control; (dose: 1.25 mg/kg/injection, schedule: Q01DX Z (ip), vehicle: carboxymethylcellulose (CMC)) 114 % of control; (dose: 5.0 mg/kg/injection, schedule: Q01DX Z (ip), vehicle: carboxymethylcellulose (CMC)) 156 % of control; (dose: 10.0 mg/kg/injection, schedule: Q01DX Z (ip), vehicle: carboxymethylcellulose (CMC)) 167 % of control; (dose: 20.0 mg/kg/injection, schedule: Q01DX Z (ip), vehicle: carboxymethylcellulose (CMC)) 93 % of control.

Consider `CCCSc1ncnc2nc[nH]c12`, for which the T/C was 113 % of control under setting [1]; 105 % of control under setting [2]; 88 % of control (dose: 31.3 mg/kg/injection, schedule: Q01DX010 (ip), vehicle: saline); 115 % of control under setting [4]; 94 % of control (dose: 62.5 mg/kg/injection, schedule: Q01DX010 (ip), vehicle: saline); 88 % of control (dose: 125.0 mg/kg/injection, schedule: Q01DX010 (ip), vehicle: saline).

Regarding `CN(N=O)C(=O)NC(C=O)C(O)C(O)C(O)CO` (stereo not drawn), the T/C (dose: 50.0 mg/kg/injection, schedule: Q01DX Z (ip), vehicle: saline) was 111 % of control and the T/C (dose: 100.0 mg/kg/injection, schedule: Q01DX Z (ip), vehicle: saline) was 122 % of control.

For `CCCCn1cnc2c(=S)nc[nH]c21`, the T/C was 88 % of control and 94 % of control (dose: 16.0 mg/kg/injection, schedule: Q01DX010 (ip), vehicle: saline); 108 % of control under setting [3]; 88 % of control and 100 % of control (dose: 32.0 mg/kg/injection, schedule: Q01DX010 (ip), vehicle: saline); 102 % of control under setting [4]; 88 % of control and 100 % of control (dose: 64.0 mg/kg/injection, schedule: Q01DX010 (ip), vehicle: saline); 106 % of control and 113 % of control under setting [5]. Further, the T/C by setting is: (dose: 128.0 mg/kg/injection, schedule: Q01DX010 (ip), vehicle: saline) 100 % of control; under setting [6], 100 % of control.

`CS(=O)(=O)OCCCl`: the T/C by setting is: (dose: 3.1 mg/kg/injection, schedule: Q01DX Z (ip), vehicle: carboxymethylcellulose (CMC)) 88 % of control; under setting [1], 89 % of control; under setting [2], 86 % of control and 89 % of control; (dose: 18.8 mg/kg/injection, schedule: Q01DX010 (ip), vehicle: saline) 88 % of control and 95 % of control; (dose: 37.5 mg/kg/injection, schedule: Q01DX010 (ip), vehicle: saline) 90 % of control and 94 % of control; (dose: 75.0 mg/kg/injection, schedule: Q01DX010 (ip), vehicle: saline) 90 % of control and 100 % of control. Besides, the T/C (dose: 150.0 mg/kg/injection, schedule: Q01DX010 (ip), vehicle: saline) is 105 % of control and 90 % of control.

On to `[I][Hg][CH2]C1COC([CH2][Hg][I])CO1` (stereo not drawn), for which the T/C runs as follows: (dose: 0.95 mg/kg/injection, schedule: Q01DX Z (ip), vehicle: carboxymethylcellulose (CMC)) 97 % of control; (dose: 1.9 mg/kg/injection, schedule: Q01DX Z (ip), vehicle: carboxymethylcellulose (CMC)) 94 % of control; (dose: 3.75 mg/kg/injection, schedule: Q01DX Z (ip), vehicle: carboxymethylcellulose (CMC)) 90 % of control; (dose: 6.25 mg/kg/injection, schedule: Q01DX010 (ip), vehicle: saline) 100 % of control; (dose: 12.5 mg/kg/injection, schedule: Q01DX010 (ip), vehicle: saline) 100 % of control; (dose: 15.0 mg/kg/injection, schedule: Q01DX Z (ip), vehicle: carboxymethylcellulose (CMC)) 94 % of control. Moreover, the T/C is 100 % of control (dose: 25.0 mg/kg/injection, schedule: Q01DX010 (ip), vehicle: saline) and 88 % of control (dose: 50.0 mg/kg/injection, schedule: Q01DX010 (ip), vehicle: saline).

Take `CN(C)c1ccc(Nc2c3ccccc3nc3ccccc23)cc1`: the T/C under setting [1] is 115 % of control; the T/C under setting [2] is 105 % of control; the T/C under setting [3] was 112 % of control; the T/C (dose: 36.0 mg/kg/injection, schedule: Q01DX010 (ip), vehicle: saline) is 100 % of control; the T/C under setting [4] was 123 % of control and 98 % of control; the T/C (dose: 54.0 mg/kg/injection, schedule: Q01DX010 (ip), vehicle: saline) is 111 % of control. The T/C runs as follows: under setting [5], 117 % of control; (dose: 120.0 mg/kg/injection, schedule: Q01DX010 (ip), vehicle: saline) 88 % of control; under setting [6], 92 % of control.

Consider `O[C@H](CN1CC1)[C@@H](O)CN1CC1`, for which the T/C is, setting by setting: (dose: 8.0 micrograms/kg/injection, schedule: Q01DX Z (ip), vehicle: carboxymethylcellulose (CMC)) 113 % of control; (dose: 16.0 micrograms/kg/injection, schedule: Q01DX Z (ip), vehicle: carboxymethylcellulose (CMC)) 112 % of control; (dose: 31.0 micrograms/kg/injection, schedule: Q01DX Z (ip), vehicle: carboxymethylcellulose (CMC)) 118 % of control; (dose: 31.3 micrograms/kg/injection, schedule: Q01DX010 (ip), vehicle: saline) 100 % of control; (dose: 62.5 micrograms/kg/injection, schedule: Q01DX010 (ip), vehicle: saline) 106 % of control; (dose: 125.0 micrograms/kg/injection, schedule: Q01DX010 (ip), vehicle: saline) 112 % of control. In addition, the T/C is, setting by setting: (dose: 250.0 micrograms/kg/injection, schedule: Q01DX010 (ip), vehicle: saline) 150 % of control; (dose: 250.0 micrograms/kg/injection, schedule: Q01DX Z (ip), vehicle: carboxymethylcellulose (CMC)) 170 % of control; (dose: 500.0 micrograms/kg/injection, schedule: Q01DX Z (ip), vehicle: carboxymethylcellulose (CMC)) 172 % of control and 200 % of control.

Turning to `OCC1OC(n2cnc3c(Cl)ncnc32)C(O)C1O` (stereo not drawn), the T/C is 104 % of control (dose: 62.5 mg/kg/injection, schedule: Q01DX Z (ip), vehicle: carboxymethylcellulose (CMC)); 101 % of control (dose: 125.0 mg/kg/injection, schedule: Q01DX Z (ip), vehicle: carboxymethylcellulose (CMC)); 92 % of control (dose: 250.0 mg/kg/injection, schedule: Q01DX Z (ip), vehicle: carboxymethylcellulose (CMC)); 106 % of control (dose: 500.0 mg/kg/injection, schedule: Q01DX Z (ip), vehicle: carboxymethylcellulose (CMC)).

Take `CN1CC[C@]23c4c5ccc(O)c4O[C@H]2C(=O)CC[C@H]3[C@H]1C5`: the T/C by setting is: (dose: 0.5 mg/kg/injection, schedule: Q01DX010 (ip), vehicle: saline) 106 % of control; (dose: 1.0 mg/kg/injection, schedule: Q01DX010 (ip), vehicle: saline) 118 % of control; (dose: 2.0 mg/kg/injection, schedule: Q01DX010 (ip), vehicle: saline) 106 % of control; (dose: 4.0 mg/kg/injection, schedule: Q01DX010 (ip), vehicle: saline) 100 % of control.
